In US8124610B2, “Sodium channel inhibitors” (Icagen Inc., priority 2007, dated 2012):

Tests used:
hSCN3A = molecular target: T1, hSCN3A (Homo sapiens, UniProt Q9NY46); test: Whole-cell patch-clamp electrophysiology (conventional or PatchXpress), HEK cells expressing hSCN3A, estimated IC-50; assay type: cell-based; conditions: estimated IC-50, HEK cells expressing hSCN3A; class symbols or bounds; read-out: SCN3A EIC-50
T1 construct: expressed in transfected cells
Procedure, shortened: (§1)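 Stably transfected HEK cells recorded by whole-cell voltage clamp (manual or PatchXpress) at 22–24 °C in pH 7.4 HEPES-buffered extracellular solution. Cells held at the empirically determined inactivation V1/2 after an 8 s prepulse, then stepped to 0 mV for 20 ms; % inhibition from current amplitude before vs after compound.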

hSCN9A = molecular target: T2, hSCN9A (Homo sapiens, UniProt Q15858); test: Whole-cell patch-clamp electrophysiology (conventional or PatchXpress), HEK cells expressing hSCN9A, estimated IC-50; assay type: cell-based; conditions: estimated IC-50, HEK cells expressing hSCN9A; class symbols or bounds; read-out: SCN9A EIC-50
T2 construct: expressed in transfected cells
T2 sequence (Q15858 whole entry): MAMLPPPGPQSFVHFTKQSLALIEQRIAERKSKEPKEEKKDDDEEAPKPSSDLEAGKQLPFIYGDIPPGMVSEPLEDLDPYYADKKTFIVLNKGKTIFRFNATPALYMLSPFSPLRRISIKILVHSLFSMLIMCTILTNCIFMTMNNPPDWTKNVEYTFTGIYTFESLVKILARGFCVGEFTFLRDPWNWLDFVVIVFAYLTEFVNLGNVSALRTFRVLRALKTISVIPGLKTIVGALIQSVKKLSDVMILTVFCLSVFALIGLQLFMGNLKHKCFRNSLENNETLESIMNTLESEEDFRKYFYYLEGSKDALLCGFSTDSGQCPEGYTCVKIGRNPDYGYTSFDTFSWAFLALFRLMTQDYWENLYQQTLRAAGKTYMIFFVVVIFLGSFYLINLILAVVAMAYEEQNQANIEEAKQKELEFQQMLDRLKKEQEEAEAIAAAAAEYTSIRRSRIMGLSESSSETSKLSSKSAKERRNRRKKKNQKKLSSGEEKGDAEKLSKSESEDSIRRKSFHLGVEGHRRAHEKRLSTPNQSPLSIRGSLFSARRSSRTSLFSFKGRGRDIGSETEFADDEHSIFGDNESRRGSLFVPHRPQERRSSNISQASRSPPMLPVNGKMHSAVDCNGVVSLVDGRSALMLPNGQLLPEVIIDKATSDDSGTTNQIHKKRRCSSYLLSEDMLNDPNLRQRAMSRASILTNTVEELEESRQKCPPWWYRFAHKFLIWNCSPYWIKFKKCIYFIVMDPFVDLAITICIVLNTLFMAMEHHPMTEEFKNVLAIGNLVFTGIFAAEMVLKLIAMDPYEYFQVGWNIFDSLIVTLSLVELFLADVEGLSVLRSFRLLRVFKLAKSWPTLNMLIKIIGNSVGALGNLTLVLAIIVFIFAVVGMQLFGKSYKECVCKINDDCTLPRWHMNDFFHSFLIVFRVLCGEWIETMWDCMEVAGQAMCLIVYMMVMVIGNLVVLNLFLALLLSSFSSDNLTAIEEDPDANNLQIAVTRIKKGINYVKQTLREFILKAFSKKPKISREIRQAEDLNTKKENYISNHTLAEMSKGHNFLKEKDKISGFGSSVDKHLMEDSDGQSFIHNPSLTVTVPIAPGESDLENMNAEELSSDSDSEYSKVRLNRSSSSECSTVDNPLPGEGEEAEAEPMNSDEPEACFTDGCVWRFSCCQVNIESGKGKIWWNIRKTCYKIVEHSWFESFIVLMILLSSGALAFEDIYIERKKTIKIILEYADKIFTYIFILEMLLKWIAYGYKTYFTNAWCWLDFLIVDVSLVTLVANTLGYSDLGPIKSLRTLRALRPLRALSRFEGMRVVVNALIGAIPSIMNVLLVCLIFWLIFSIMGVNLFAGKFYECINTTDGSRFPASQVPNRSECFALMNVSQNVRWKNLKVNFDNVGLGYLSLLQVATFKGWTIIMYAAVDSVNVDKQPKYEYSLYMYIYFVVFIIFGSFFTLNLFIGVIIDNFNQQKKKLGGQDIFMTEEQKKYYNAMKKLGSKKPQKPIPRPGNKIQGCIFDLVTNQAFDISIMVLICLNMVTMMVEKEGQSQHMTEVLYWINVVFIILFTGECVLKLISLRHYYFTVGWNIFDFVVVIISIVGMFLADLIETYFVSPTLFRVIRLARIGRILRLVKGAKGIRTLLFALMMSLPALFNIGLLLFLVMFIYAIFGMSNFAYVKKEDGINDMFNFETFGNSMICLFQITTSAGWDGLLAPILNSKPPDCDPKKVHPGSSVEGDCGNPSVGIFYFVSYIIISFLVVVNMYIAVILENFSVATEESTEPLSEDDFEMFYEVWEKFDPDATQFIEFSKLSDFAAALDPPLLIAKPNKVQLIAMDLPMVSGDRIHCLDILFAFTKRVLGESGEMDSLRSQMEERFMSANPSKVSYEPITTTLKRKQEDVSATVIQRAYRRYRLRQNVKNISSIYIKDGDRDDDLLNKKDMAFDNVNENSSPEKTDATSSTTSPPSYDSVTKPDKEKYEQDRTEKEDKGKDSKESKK
Procedure, shortened: as §1

T1 sequence (Q9NY46 whole entry): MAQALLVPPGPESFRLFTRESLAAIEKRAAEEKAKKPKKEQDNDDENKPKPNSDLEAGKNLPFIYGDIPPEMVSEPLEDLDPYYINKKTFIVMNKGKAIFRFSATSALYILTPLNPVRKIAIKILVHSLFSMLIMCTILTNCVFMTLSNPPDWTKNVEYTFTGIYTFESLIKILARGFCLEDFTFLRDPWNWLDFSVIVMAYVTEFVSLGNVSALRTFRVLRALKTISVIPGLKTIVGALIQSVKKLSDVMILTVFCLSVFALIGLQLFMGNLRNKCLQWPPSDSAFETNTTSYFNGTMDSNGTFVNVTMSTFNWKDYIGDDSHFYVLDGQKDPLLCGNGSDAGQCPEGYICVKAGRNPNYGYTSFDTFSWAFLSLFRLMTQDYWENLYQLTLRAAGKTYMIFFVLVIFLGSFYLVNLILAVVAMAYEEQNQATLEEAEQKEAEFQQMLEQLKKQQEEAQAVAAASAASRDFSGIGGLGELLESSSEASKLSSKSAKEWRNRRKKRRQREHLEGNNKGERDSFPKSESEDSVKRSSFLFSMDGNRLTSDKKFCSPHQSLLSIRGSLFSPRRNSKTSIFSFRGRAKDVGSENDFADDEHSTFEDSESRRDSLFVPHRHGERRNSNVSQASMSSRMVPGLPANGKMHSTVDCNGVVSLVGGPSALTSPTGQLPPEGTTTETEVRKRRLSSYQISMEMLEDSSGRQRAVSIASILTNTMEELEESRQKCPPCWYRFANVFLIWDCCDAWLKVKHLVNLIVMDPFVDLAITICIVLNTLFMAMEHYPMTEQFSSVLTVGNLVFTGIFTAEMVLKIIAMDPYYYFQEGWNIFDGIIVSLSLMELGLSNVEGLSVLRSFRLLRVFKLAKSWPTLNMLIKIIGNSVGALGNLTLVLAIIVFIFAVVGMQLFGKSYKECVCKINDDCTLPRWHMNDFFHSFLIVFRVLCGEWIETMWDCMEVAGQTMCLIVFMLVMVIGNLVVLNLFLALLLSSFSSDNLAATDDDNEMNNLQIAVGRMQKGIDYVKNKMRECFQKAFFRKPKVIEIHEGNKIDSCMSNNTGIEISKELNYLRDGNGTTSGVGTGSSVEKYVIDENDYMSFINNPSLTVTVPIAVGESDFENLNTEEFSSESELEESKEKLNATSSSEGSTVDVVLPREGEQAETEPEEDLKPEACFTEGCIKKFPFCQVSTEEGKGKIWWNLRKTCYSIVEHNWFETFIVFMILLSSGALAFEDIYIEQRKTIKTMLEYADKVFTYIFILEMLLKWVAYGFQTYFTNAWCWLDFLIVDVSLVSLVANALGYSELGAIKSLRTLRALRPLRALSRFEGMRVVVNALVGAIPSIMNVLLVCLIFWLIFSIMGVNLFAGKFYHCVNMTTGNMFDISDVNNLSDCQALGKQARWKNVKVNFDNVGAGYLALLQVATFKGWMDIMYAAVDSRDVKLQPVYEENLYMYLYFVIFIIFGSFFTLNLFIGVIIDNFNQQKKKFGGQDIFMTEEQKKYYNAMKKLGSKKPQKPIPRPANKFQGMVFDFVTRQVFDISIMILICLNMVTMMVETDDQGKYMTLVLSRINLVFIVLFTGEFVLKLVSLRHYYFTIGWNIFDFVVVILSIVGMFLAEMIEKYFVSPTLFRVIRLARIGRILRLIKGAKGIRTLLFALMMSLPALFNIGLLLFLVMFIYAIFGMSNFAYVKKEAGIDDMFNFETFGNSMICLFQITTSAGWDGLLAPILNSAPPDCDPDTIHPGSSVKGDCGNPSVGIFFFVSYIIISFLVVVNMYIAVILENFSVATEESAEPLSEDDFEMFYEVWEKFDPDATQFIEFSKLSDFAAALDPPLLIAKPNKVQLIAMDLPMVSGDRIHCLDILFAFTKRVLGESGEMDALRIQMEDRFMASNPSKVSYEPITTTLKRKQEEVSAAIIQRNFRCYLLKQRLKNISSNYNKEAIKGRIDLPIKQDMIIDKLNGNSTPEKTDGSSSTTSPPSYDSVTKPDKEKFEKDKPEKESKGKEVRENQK

| Structure (SMILES) | IC50 (hSCN3A) | IC50 (hSCN9A) |
| --- | --- | --- |
| O=S(=O)(Nc1nccs1)c1ccc(Nc2ccn(Cc3ccc(C(F)(F)F)cc3)n2)c(F)c1 [Compound 185, 3-fluoro-N-(thiazol-2-yl)-4-(1-(4-(trifluoromethyl)benzyl)-1H-pyrazol-3-ylamino)benzenesulfonamide] | < 2000 nM | < 2000 nM |
| COc1ccccc1-n1nc(C)cc1Nc1ccc(S(=O)(=O)Nc2nccs2)c(F)c1 [Compound 188, 2-fluoro-4-(1-(2-methoxyphenyl)-3-methyl-1H-pyrazol-5-ylamino)-N-(thiazol-2-yl)benzenesulfonamide] | < 2000 nM | < 2000 nM |
| Cc1cc(Nc2ccc(S(=O)(=O)Nc3nccs3)c(F)c2)n(-c2c(C)cccc2C)n1 [Compound 191, 4-(1-(2,6-dimethylphenyl)-3-methyl-1H-pyrazol-5-ylamino)-2-fluoro-N-(thiazol-2-yl)benzenesulfonamide] | < 2000 nM | < 2000 nM |
| Cn1nc(C(C)(C)C)cc1Nc1ccc(S(=O)(=O)Nc2nccs2)c(F)c1 [Compound 193, 4-(3-tert-butyl-1-methyl-1H-pyrazol-5-ylamino)-2-fluoro-N-(thiazol-2-yl)benzenesulfonamide] | < 2000 nM | < 2000 nM |
| O=S(=O)(Nc1nccs1)c1ccc(Nc2ccn(Cc3ccc(Cl)cc3F)n2)c(F)c1 [Compound 198, 4-(1-(4-chloro-2-fluorobenzyl)-1H-pyrazol-3-ylamino)-3-fluoro-N-(thiazol-2-yl)benzenesulfonamide] | < 2000 nM | < 2000 nM |
| O=S(=O)(Nc1nccs1)c1ccc(Nc2ncn(Cc3cccc(Cl)c3)n2)c(F)c1 [Compound 201, 4-(1-(3-chlorobenzyl)-1H-1,2,4-triazol-3-ylamino)-3-fluoro-N-(thiazol-2-yl)benzenesulfonamide] | 2000 to 10000 nM | < 2000 nM |
| O=S(=O)(Nc1nccs1)c1ccc(Nc2cc(CC(F)(F)F)nn2-c2ccccc2F)cc1F [Compound 204, 2-fluoro-4-(1-(2-fluorophenyl)-3-(2,2,2-trifluoroethyl)-1H-pyrazol-5-ylamino)-N-(thiazol-2-yl)benzenesulfonamide] | < 2000 nM | < 2000 nM |
| O=S(=O)(Nc1nccs1)c1ccc(Nc2ccn(Cc3ccc(Cl)cc3)n2)c(Cl)c1 [Compound 205, 3-chloro-4-(1-(4-chlorobenzyl)-1H-pyrazol-3-ylamino)-N-(thiazol-2-yl)benzenesulfonamide] | < 2000 nM | < 2000 nM |
| O=S(=O)(Nc1nccs1)c1cc(F)c(Nc2ccn(Cc3ccc(Cl)cc3)n2)cc1F [Compound 206, 4-(1-(4-chlorobenzyl)-1H-pyrazol-3-ylamino)-2,5-difluoro-N-(thiazol-2-yl)benzenesulfonamide] | < 2000 nM | < 2000 nM |
| CCN(CC)C(=O)Cc1cc(Nc2ccc(S(=O)(=O)Nc3nccs3)c(F)c2)n(-c2ccccc2)n1 [Compound 216, N,N-diethyl-2-(5-(3-fluoro-4-(N-thiazol-2-ylsulfamoyl)phenylamino)-1-phenyl-1H-pyrazol-3-yl)ethanamide] | > 1000 nM | < 2000 nM |
| COc1cc(Cl)ccc1-c1cc(Nc2ccc(S(=O)(=O)Nc3nccs3)c(F)c2)n(C)n1 [Compound 222, 4-(3-(4-chloro-2-methoxyphenyl)-1-methyl-1H-pyrazol-5-ylamino)-2-fluoro-N-(thiazol-2-yl)benzenesulfonamide] | < 2000 nM | < 2000 nM |
| O=S(=O)(Nc1nccs1)c1ccc(Nc2ccn(Cc3ccc(Cl)cc3)n2)nc1 [Compound 227, 6-(1-(4-chlorobenzyl)-1H-pyrazol-3-ylamino)-N-(thiazol-2-yl)pyridine-3-sulfonamide] | < 2000 nM | 2000 to 10000 nM |
| O=S(=O)(Nc1nccs1)c1ccc(Nc2cnn(Cc3ccc(Cl)cc3)c2)nc1 [Compound 228, 6-(1-(4-chlorobenzyl)-1H-pyrazol-4-ylamino)-N-(thiazol-2-yl)pyridine-3-sulfonamide] | < 2000 nM | 2000 to 10000 nM |
| O=S(=O)(Nc1nccs1)c1ccc(Nc2ccn(Cc3ccc(Cl)cc3)n2)cn1 [Compound 235, 5-(1-(4-chlorobenzyl)-1H-pyrazol-3-ylamino)-N-(thiazol-2-yl)pyridine-2-sulfonamide] | < 2000 nM | 2000 to 10000 nM |
| O=S(=O)(Nc1ncns1)c1ccc(Nc2ccn(Cc3ccc(Cl)cc3)n2)cc1F [Compound 244, 4-(1-(4-chlorobenzyl)-1H-pyrazol-3-ylamino)-2-fluoro-N-(1,2,4-thiadiazol-5-yl)benzenesulfonamide] | < 2000 nM | < 2000 nM |
| Cc1cc(Nc2ccc(S(=O)(=O)Nc3ncc(C#N)s3)c(F)c2)n(-c2ccccc2)n1 [Compound 245, N-(5-cyanothiazol-2-yl)-2-fluoro-4-(3-methyl-1-phenyl-1H-pyrazol-5-ylamino)benzenesulfonamide] | 2000 to 10000 nM | > 1000 nM |
| O=S(=O)(Nc1nccs1)c1ccc(Nc2ccn(Cc3ccc(Cl)cc3)n2)cc1Cl [Compound 263, 2-chloro-4-(1-(4-chlorobenzyl)-1H-pyrazol-3-ylamino)-N-(thiazol-2-yl)benzenesulfonamide] | < 2000 nM | < 2000 nM |
| N#Cc1cc(Nc2ccn(Cc3ccc(Cl)cc3)n2)ccc1S(=O)(=O)Nc1nccs1 [Compound 264, 4-(1-(4-chlorobenzyl)-1H-pyrazol-3-ylamino)-2-cyano-N-(thiazol-2-yl)benzenesulfonamide] | < 2000 nM | < 2000 nM |
| O=S(=O)(Nc1nccs1)c1ccc(Nc2ccn(Cc3ccc(Cl)cc3)n2)cc1OC(F)(F)F [Compound 266, 4-(1-(4-chlorobenzyl)-1H-pyrazol-3-ylamino)-N-(thiazol-2-yl)-2-(trifluoromethoxy)benzenesulfonamide] | 2000 to 10000 nM | > 1000 nM |
| Cc1cc(S(=O)(=O)Nc2nccs2)c(F)cc1Nc1ccn(Cc2ccc(Cl)cc2)n1 [Compound 269, 4-(1-(4-chlorobenzyl)-1H-pyrazol-3-ylamino)-2-fluoro-5-methyl-N-(thiazol-2-yl)benzenesulfonamide] | < 2000 nM | < 2000 nM |
| COc1ccc(C(=O)Cn2ncc3cc(S(=O)(=O)Nc4nccs4)ccc32)c(OC)c1 [Compound 276, 1-(2-(2,4-dimethoxyphenyl)-2-oxoethyl)-N-(thiazol-2-yl)-1H-indazole-5-sulfonamide] | < 2000 nM | > 1000 nM |
| COc1ccc(C(=O)Cn2cc3cc(S(=O)(=O)Nc4nccs4)ccc3n2)c(OC)c1 [Compound 277, 2-(2-(2,4-dimethoxyphenyl)-2-oxoethyl)-N-(thiazol-2-yl)-2H-indazole-5-sulfonamide] | > 1000 nM | < 2000 nM |

Further lines, results first:

| IC50 (hSCN3A) | IC50 (hSCN9A) | Structure (SMILES) |
| --- | --- | --- |
| < 2000 nM | < 2000 nM | Cn1nc(-c2ccc(Cl)cc2)cc1Nc1ccc(S(=O)(=O)Nc2nccs2)c(F)c1 [Compound 153, 4-(3-(4-chlorophenyl)-1-methyl-1H-pyrazol-5-ylamino)-2-fluoro-N-(thiazol-2-yl)benzenesulfonamide] |
| < 2000 nM | < 2000 nM | O=S(=O)(Nc1nccs1)c1ccc(Nc2cc(-c3ccccc3)nn2-c2ccccc2)cc1F [Compound 154, 4-(1,3-diphenyl-1H-pyrazol-5-ylamino)-2-fluoro-N-(thiazol-2-yl)benzenesulfonamide] |
| < 2000 nM | < 2000 nM | NC(=O)Cn1nc(Cc2ccc(Cl)cc2)cc1Nc1ccc(S(=O)(=O)Nc2nccs2)cc1 [Compound 155, 2-(3-(4-chlorobenzyl)-5-(4-(N-thiazol-2-ylsulfamoyl)phenylamino)-1H-pyrazol-1-yl)acetamide] |
| < 2000 nM | < 2000 nM | CC(C)(C)c1cc(Nc2ccc(S(=O)(=O)Nc3nccs3)c(F)c2)n(-c2ccccc2)n1 [Compound 156, 4-(3-tert-butyl-1-phenyl-1H-pyrazol-5-ylamino)-2-fluoro-N-(thiazol-2-yl)benzenesulfonamide] |
| < 2000 nM | < 2000 nM | Cc1cc(Nc2ccc(S(=O)(=O)Nc3nccs3)c(Cl)c2)n(-c2ccccc2)n1 [Compound 161, 2-chloro-4-(3-methyl-1-phenyl-1H-pyrazol-5-ylamino)-N-(thiazol-2-yl)benzenesulfonamide] |
| < 2000 nM | < 2000 nM | Cc1cc(Nc2ccc(S(=O)(=O)Nc3ncc(Cl)s3)c(F)c2)n(-c2ccccc2)n1 [Compound 162, N-(5-chlorothiazol-2-yl)-2-fluoro-4-(3-methyl-1-phenyl-1H-pyrazol-5-ylamino)benzenesulfonamide] |
| < 2000 nM | < 2000 nM | O=S(=O)(Nc1nccs1)c1ccc(Nc2ccccc2-c2ccccc2)cc1F [Compound 172, 4-(biphenyl-2-ylamino)-2-fluoro-N-(thiazol-2-yl)benzenesulfonamide] |
| < 2000 nM | < 2000 nM | Cc1cc(Nc2ccc(S(=O)(=O)Nc3nccs3)c(F)c2)n(-c2ccccc2F)n1 [Compound 173, 2-fluoro-4-(1-(2-fluorophenyl)-3-methyl-1H-pyrazol-5-ylamino)-N-(thiazol-2-yl)benzenesulfonamide] |
| < 2000 nM | < 2000 nM | Cc1cc(Nc2ccc(S(=O)(=O)Nc3nccs3)c(F)c2)n(-c2ccc(F)cc2Cl)n1 [Compound 182, 4-(1-(2-chloro-4-fluorophenyl)-3-methyl-1H-pyrazol-5-ylamino)-2-fluoro-N-(thiazol-2-yl)benzenesulfonamide] |
| < 2000 nM | < 2000 nM | O=S(=O)(Nc1nccs1)c1ccc(Nc2ccn(Cc3ccc(C(F)(F)F)cc3)n2)cc1F [Compound 183, 2-fluoro-N-(thiazol-2-yl)-4-(1-(4-(trifluoromethyl)benzyl)-1H-pyrazol-3-ylamino)benzenesulfonamide] |
| < 2000 nM | < 2000 nM | O=S(=O)(Nc1nccs1)c1ccc(Nc2ccn(Cc3ccc(Cl)cc3)n2)c(F)c1 [Compound 184, 4-(1-(4-chlorobenzyl)-1H-pyrazol-3-ylamino)-3-fluoro-N-(thiazol-2-yl)benzenesulfonamide] |
